Laboratory results: patent publication US9510598B2, “Nitrogen-containing heterocyclic compounds for plant disease control” (BAYER CROPSCIENCE AG, priority 2012, dated 2016)

type: physicochemical; conditions: HPLC on reversed phase columns, method [a]: pH 2.7, 0.1% formic acid in water and acetonitrile, linear gradient 10% to 95% acetonitrile

Structure (SMILES) | log P
C#Cc1cnc2ccc(C3=NOC(C)(C(=O)N(Cc4cc(F)cc5c4C(C)(C)CCC5)C4CC4)C3)cc2c1 (racemic) [compound 816] | 5.54[a]
CC1(C(=O)NCc2cccnc2O)CC(c2ccc3ncc(Br)cc3c2)=NO1 (racemic) [compound 817] | 1.88[a]
C#Cc1cnc2ccc(C3=NOC(OC)(C(=O)NCCC4CCCO4)C3)cc2c1 (racemic) [compound 818] | 2.11[a]
CC(C)(C)Oc1ncccc1CNC(=O)C1(C)CC(c2ccc3ncc(Br)cc3c2)=NO1 (racemic) [compound 819] | 4.46[a]
C#Cc1cnc2ccc(C3=NOC(OC)(C(=O)NCc4cn(CC)nc4C(F)(F)F)C3)cc2c1 (racemic) [compound 820] | 2.80[a]
CCn1cc(CNC(=O)C2(C)CC(c3ccc4ncc(Br)cc4c3)=NO2)c(C(F)(F)F)n1 (racemic) [compound 821] | 3.13[a]

Next, values leading:

log P | Structure (SMILES)
3.03[a] | COC1(C(=O)NCCC2CC2)CC(c2ccc3ncc(Br)cc3c2)=NO1 (racemic) [compound 822]
2.27[a] | COC1(C(=O)NCCC2CCOC2)CC(c2ccc3ncc(Br)cc3c2)=NO1 (racemic) [compound 823]

same assay, conditions: method [a]: HPLC/LC-MS on reversed phase at pH 2.7, 0.1% formic acid in water / acetonitrile, gradient 10% to 95% acetonitrile

Structure (SMILES) | log P
C#Cc1cnc2ccc(C3=NOC(C)(C(=O)NC(C)CCCCCC)C3)cc2c1 (racemic) [compound 367] | 4.19[a]
C#Cc1cnc2ccc(C3=NOC(C)(C(=O)NC(C)CCC(C)C)C3)cc2c1 (racemic) [compound 369] | 3.73[a]
CCn1cc(CNC(=O)C2(C)CC(c3ccc4ncc(-c5ccco5)cc4c3)=NO2)c(C)n1 (racemic) [compound 379] | 2.37[a]
CC(C)NC(=O)C1(C)CC(c2ccc3ncc(NC(=O)OC(C)(C)C)cc3c2)=NO1 (racemic) [compound 430] | 2.77[a]
CCn1cc(CNC(=O)C2(C)CC(c3ccc4nc(C#N)c(I)cc4c3)=NO2)c(C)n1 (racemic) [compound 431] | 2.57[a]
CCn1cc(CNC(=O)C2(C)CC(c3ccc4nc(Cl)c(I)cc4c3)=NO2)c(C)n1 (racemic) [compound 432] | 2.94[a]
CCn1cc(CNC(=O)C2(C)CC(c3ccc4ncc(N)cc4c3)=NO2)c(C)n1 (racemic) [compound 452] | 1.12[a]

Continued, values first:

log P | Structure (SMILES)
2.44[a] | CCn1cc(CNC(=O)C2(C)ON=C(c3ccc4ncc(Br)cc4c3)C2OC)c(C)n1 (mixture of isomers) [compound 433]
1.11[a] | C#Cc1cnc2ccc(C3=NOC(C)(C(=O)NCCCN(C)C)C3)cc2c1 (racemic) [compound 363]
4.73[a] | CCCCCCC(C)NC(=O)C1(C)CC(c2ccc3ncc(Br)cc3c2)=NO1 (racemic) [compound 370]
4.29[a] | CC1CCCC(C)C1NC(=O)C1(C)CC(c2ccc3ncc(Br)cc3c2)=NO1 (racemic) [compound 372]
2.66[a] | CC(C)(C)ONC(=O)C1(C)CC(c2ccc3ncc(Br)cc3c2)=NO1 (racemic) [compound 373]
2.73[a] | CC(ONC(=O)C1(C)CC(c2ccc3ncc(Br)cc3c2)=NO1)C1CC1 (racemic) [compound 375]
2.55[a] | CCn1cc(CNC(=O)C2(C)ON=C(c3ccc4ncc(Br)cc4c3)C2C)c(C)n1 (racemic) [compound 385]
2.31[a] | CCn1cc(CNC(=O)C2(CC(=O)OC)CC(c3ccc4ncc(Br)cc4c3)=NO2)c(C)n1 (racemic) [compound 386]
2.66[a] | COC(=O)CC1(C(=O)NC(C)C)CC(c2ccc3ncc(Br)cc3c2)=NO1 (racemic) [compound 387]
3.35[a] | CCOC1C(c2ccc3ncc(Br)cc3c2)=NOC1(C)C(=O)NC(C)C (racemic) [compound 393]
2.50[a] | O=C(NC1CC1)C12CC1C(c1ccc3ncc(Br)cc3c1)=NO2 (racemic) [compound 398]
2.44[a] | CCn1cc(CNC(=O)C23CC2C(c2ccc4ncc(Br)cc4c2)=NO3)c(C)n1 (racemic) [compound 399]
2.75[a] | CC1(C)OCC(CNC(=O)C23CC2C(c2ccc4ncc(Br)cc4c2)=NO3)O1 (racemic) [compound 400]
2.84[a] | CCOCCCNC(=O)C12CC1C(c1ccc3ncc(Br)cc3c1)=NO2 (racemic) [compound 401]
3.11[a] | CC(C)NC(=O)C12ON=C(c3ccc4ncc(Br)cc4c3)C1C2C (racemic) [compound 403]
3.01[a] | CCn1cc(CNC(=O)C2(CC3CC3)CC(c3ccc4ncc(Br)cc4c3)=NO2)c(C)n1 (racemic) [compound 425]

same assay, conditions: method [a]: HPLC/LC-MS on reversed phase at pH 2.7, 0.1% formic acid in water / acetonitrile, linear gradient 10% to 95% acetonitrile

Structure (SMILES) | log P
CCC(C)NC(=O)C1(C)CC(c2cc3cc(Br)cnc3c(F)c2OC)=NO1 (stereo not shown) [compound 27] | 3.29^[a]
CC(C)NC(=O)C1(Cc2ccccc2)CC(c2ccc3ncc(Br)cc3c2)=NO1 (stereo not shown) [compound 57] | 3.87^[a]
CC(C)NC(=O)C1(C)CC(c2ccc3ncc([S+](C)[O-])cc3c2)=NO1 (stereo not shown) [compound 77] | 1.49^[a]
CC(C)NC(=O)C1(C)CC(c2ccc3ncc(C#N)cc3c2)=NO1 (stereo not shown) [compound 79] | 2.12^[a]
CC1(C(=O)NCc2ccccc2Cl)CC(c2ccc3ncc(Br)cc3c2)=NO1 (stereo not shown) [compound 93] | 3.61^[a]
CC1(C(=O)NCc2cnn(-c3ccccc3)n2)CC(c2ccc3ncc(Br)cc3c2)=NO1 (stereo not shown) [compound 96] | 3.5^[a]
CC1(C(=O)NCc2cc(Cl)cc(Cl)c2)CC(c2ccc3ncc(Br)cc3c2)=NO1 (stereo not shown) [compound 97] | 4.16^[a]
CC1(C(=O)NCc2ccc(OC(F)(F)F)cc2)CC(c2ccc3ncc(Br)cc3c2)=NO1 (stereo not shown) [compound 101] | 3.92^[a]

The remaining lines, values ahead:

log P | Structure (SMILES)
3.46^[a] | O=C(NC1CC1)C1(Cc2ccccc2)CC(c2ccc3ncc(Br)cc3c2)=NO1 (stereo not shown) [compound 60]
3.51^[a] | CC(C)NC(=O)C1(C(C)C)CC(c2ccc3ncc(Br)cc3c2)=NO1 (stereo not shown) [compound 62]
3.11^[a] | CC(C)C1(C(=O)NC2CC2)CC(c2ccc3ncc(Br)cc3c2)=NO1 (stereo not shown) [compound 65]
3.37^[a] | CCCCC1(C(=O)NCc2cn(CC)nc2C)CC(c2ccc3ncc(Br)cc3c2)=NO1 (stereo not shown) [compound 72]
4.01^[a] | CCCCC1(C(=O)NC(C)C)CC(c2ccc3ncc(Br)cc3c2)=NO1 (stereo not shown) [compound 73]
3.04^[a] | CC(C)NC(=O)C1(CBr)CC(c2ccc3ncc(Br)cc3c2)=NO1 (stereo not shown) [compound 81]
3.06^[a] | CC1(C(=O)NCc2cccs2)CC(c2ccc3ncc(Br)cc3c2)=NO1 (stereo not shown) [compound 89]
3.15^[a] | Cc1ccc(CNC(=O)C2(C)CC(c3ccc4ncc(Br)cc4c3)=NO2)o1 (stereo not shown) [compound 90]
1.41^[a] | CC1(C(=O)NCc2cccnc2)CC(c2ccc3ncc(Br)cc3c2)=NO1 (stereo not shown) [compound 92]
3.61^[a] | CC1(C(=O)NCc2ccc(Cl)cc2)CC(c2ccc3ncc(Br)cc3c2)=NO1 (stereo not shown) [compound 94]

same assay, conditions: method [a]: HPLC/LC-MS on reversed phase at pH 2.7, 0.1% formic acid in water and acetonitrile, linear gradient 10% to 95% acetonitrile

Log P | Structure (SMILES)
1.3^[a] | CNC(=O)C1(C)CC(c2ccc3ncccc3c2)=NO1 (stereo not shown) [compound 2]
1.04^[a] | CC1(C(=O)NC2CC2)CC(c2ccc3ncccc3c2)=NO1 (stereo not shown) [compound 3]
2.92^[a] | CON(OC)C(=O)C1(C)CC(c2cc3cc(Br)cnc3c(F)c2F)=NO1 (stereo not shown) [compound 9]
2.5^[a] | CCn1cc(CNC(=O)C2(C)CC(c3cc4cc(Br)cnc4c(F)c3F)=NO2)cn1 (stereo not shown) [compound 13]
4.04^[a] | CCC(C)NC(=O)C1(C(F)(F)F)CC(c2cc3cc(Br)cnc3c(F)c2F)=NO1 (stereo not shown) [compound 15]
3.71^[a] | CCOCCCNC(=O)C1(C(F)(F)F)CC(c2cc3cc(Br)cnc3c(F)c2F)=NO1 (stereo not shown) [compound 16]
3.02^[a] | COc1ccc(CNC(=O)C2(C)CC(c3cc4cc(Br)cnc4c(F)c3F)=NO2)cc1OC (stereo not shown) [compound 19]

same assay, conditions: pH 2.7

chromatographic logP | Structure (SMILES)
2.71 | COC(=O)C1(C)CC(c2ccc3ncc(I)cc3c2)=NO1 (stereo not shown) [Compound No. 11-30]
3.04 | CC(C)NC(=O)C1(C)CC(c2ccc3ncc(-c4cccs4)cc3c2)=NO1 (stereo not shown) [Compound No. 144]
1.79 | CC(C)NC(=O)C1(C)CC(c2ccc3ncc(-c4cncnc4)cc3c2)=NO1 (stereo not shown) [Compound No. 258]
3.06 | CCOCCCNC(=O)C1(C(F)F)CC(c2ccc3ncc(Br)cc3c2)=NO1 (stereo not shown) [Compound No. 623, 3-(3-bromoquinolin-6-yl)-5-(difluoromethyl)-N-(3-ethoxypropyl)-4,5-dihydro-1,2-oxazole-5-carboxamide]

same assay, conditions: reversed phase HPLC column; HPLC reversed phase, pH 2.7, 0.1% formic acid in water / acetonitrile, linear gradient 10% to 95% acetonitrile; calibration with alkan-2-ones; read-out: log P (HCOOH)

chromatographic logP | Structure (SMILES)
1.78 | O/N=C/c1ccc2ncc(Cl)cc2c1 [1-(3-chloroquinolin-6-yl)-N-hydroxymethanimine]
1.98 | O/N=C/c1ccc2ncc(I)cc2c1 [1-(3-iodoquinolin-6-yl)-N-hydroxymethanimine]
2.63 | O/N=C(\Cl)c1ccc2ncc(I)cc2c1 [3-Iodo-N-hydroxyquinoline-6-carboximidoyl chloride]
2.71 | O=Cc1cc2cc(Br)cnc2c(F)c1F [3-bromo-7,8-difluoroquinoline-6-carbaldehyde]
2.08 | O=Cc1ccc2ncc(Br)cc2c1 [3-bromoquinoline-6-carbaldehyde]
1.96 | O/N=C(\Cl)c1ccc2ncc(Cl)cc2c1 [3-chloro-N-hydroxyquinoline-6-carboximidoyl chloride]
1.96 | O=Cc1ccc2ncc(Cl)cc2c1 [3-chloroquinoline-6-carbaldehyde]
2.12 | O=Cc1ccc2ncc(I)cc2c1 [3-iodoquinoline-6-carbaldehyde]
3.02 | CC(C)NC(=O)C1(C)CC(c2ccc3ncc(-c4ccccc4)cc3c2)=NO1 (stereo not shown) [Compound No. 141]
2.59 | CCn1cc(CNC(=O)C23OCCCC2C(c2ccc4ncc(Br)cc4c2)=NO3)c(C)n1 (stereo not shown) [Compound No. 266]
